Test results reported in ChEMBL document CHEMBL5518186, “Discovery of the cereblon-recruiting tubulin PROTACs effective in overcoming Taxol resistance in vitro and in vivo” (Eur J Med Chem, 2024).
Calls of active or inactive are those of the source. The calls are words filed in the database; no cut-off is given here.

Assays:
[1] = biological target: Protein cereblon/Tubulin beta (Homo sapiens) (UniProt P68371+Q9H4B7+Q13509+P04350+Q3ZCM7+P07437+Q13885+Q9BVA1+Q9BUF5+Q96SW2+A6NNZ2); test: Protac activity at CRBN/beta-tubulin in human A549 cells assessed as reduction in beta-tubulin level at 0.25 uM after 48 hrs by immunoblotting analysis; assay type: cell-based; set-up: scale not given: the % may be the effect or the level left
[2] = biological target: Protein cereblon/Tubulin beta-3 chain (Homo sapiens, UniProt Q13509+Q96SW2); test: Protac activity at CRBN/beta3-tubulin in human A549/Taxol cells assessed as reduction in beta3-tubulin level at 0.25 uM pretreated with pomalidomide for 2 hrs followed by compound addition and measured after 48 hrs by immunoblotting analysis; assay type: cell-based
[3] = system: A549; test: Inhibition of colony formation in human A549 cells incubated for 24 hrs followed by media replacement at every 3 days for 14 days by crystal violet staining based assay; assay type: functional, cell-based; settings: dose 2-50 nM, time 14.0 day
[4] = system: A549/TR; test: Induction of cell cycle arrest in human A549/Taxol cells assessed as accumulation of cells at G0/G1 phase at 0.05 uM incubated for 24 hrs by PI staining based flow cytometry analysis (reference value: 77.86%); assay type: functional
[5] = system: HepG2; test: Inhibition of cell migration in human HepG2 cells; assay type: functional, cell-based

Sequence of Protein cereblon/Tubulin beta-3 chain (Q13509 whole entry, looked up): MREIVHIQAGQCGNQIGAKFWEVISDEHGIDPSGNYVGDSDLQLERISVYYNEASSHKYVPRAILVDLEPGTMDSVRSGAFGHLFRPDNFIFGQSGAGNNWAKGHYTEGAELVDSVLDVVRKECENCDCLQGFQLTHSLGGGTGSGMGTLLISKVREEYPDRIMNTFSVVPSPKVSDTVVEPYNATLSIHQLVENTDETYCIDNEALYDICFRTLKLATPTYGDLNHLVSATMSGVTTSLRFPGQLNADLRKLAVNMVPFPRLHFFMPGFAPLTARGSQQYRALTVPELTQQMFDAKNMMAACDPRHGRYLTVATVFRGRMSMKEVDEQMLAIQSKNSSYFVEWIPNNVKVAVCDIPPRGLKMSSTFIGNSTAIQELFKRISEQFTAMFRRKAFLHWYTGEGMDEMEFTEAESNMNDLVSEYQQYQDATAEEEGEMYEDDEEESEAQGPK
Sequence of Protein cereblon/Tubulin beta-3 chain (Q96SW2 whole entry, looked up): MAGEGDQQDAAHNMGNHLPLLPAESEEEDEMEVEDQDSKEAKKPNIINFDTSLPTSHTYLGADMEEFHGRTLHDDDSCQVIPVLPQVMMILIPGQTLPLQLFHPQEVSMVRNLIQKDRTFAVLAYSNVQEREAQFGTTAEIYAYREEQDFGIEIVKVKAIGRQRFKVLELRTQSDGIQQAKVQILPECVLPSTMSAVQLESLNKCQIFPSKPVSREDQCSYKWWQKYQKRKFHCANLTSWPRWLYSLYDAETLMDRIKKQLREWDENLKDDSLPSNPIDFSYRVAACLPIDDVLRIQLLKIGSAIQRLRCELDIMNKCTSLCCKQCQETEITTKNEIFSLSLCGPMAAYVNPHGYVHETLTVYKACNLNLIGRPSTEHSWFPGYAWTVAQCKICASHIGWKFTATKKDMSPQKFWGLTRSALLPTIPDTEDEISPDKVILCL

COc1ccc(/C=C\c2cc(OC)c(OC)c(OC)c2)cc1OC(=O)CCCNc1cccc2c1C(=O)N(C1CCC(=O)NC1=O)C2=O (stereo not given)
Activity [1]: 31.1%
Activity [2]: inactive
inhibition [3]: Dose-Dependent Effect
Activity [4]: 30%
inhibition [5]: Dose-Dependent Effect
